{"source": "patent US10149881B2", "about": "“Method for treating inflammatory, allergic or asthma diseases, containing paprika extracts” (priority 2010, dated 2018)", "assay_type_in_all_cases": "in vivo, mice", "key": {"[1]": {"system": "IgG2a", "test": "Analysis of IgG2a, OVA asthma mouse model", "conditions": "FIG. 14", "experimental": "(§1) Meanwhile, immunoglobulin IgG2a is produced by activation of Th1 cells, and the activity of Th1 cells reduces the level of IgG1 which is increased by the activity of Th2 cells. Thus, IgG1 and IgG2a were analyzed."}, "[2]": {"system": "IgG1", "test": "Analysis of IgG1, OVA asthma mouse model", "conditions": "blood; FIG. 11, FIG. 14", "experimental": "as §1"}, "[3]": {"system": "immunoglobulin-E (IgE)", "test": "Measurement of blood immunoglobulin E (IgE) level, OVA asthma mouse model", "conditions": "FIG. 13", "experimental": "When asthma in mice is induced using OVA, the immunoglobulin-E (IgE) among the blood antibody levels of the mice increases in proportion to the severity of asthma. Based on this principle, the paprika extract obtained according to the method of Example 1 was named “sample SP526”, and the blood immunoglobulin-E (IgE) level of the mice was measured. Also, the level of immunoglobulin-E (IgE) was measured."}, "[4]": {"system": "infiltration of immune cells", "test": "Immune cell infiltration, comparison with luteolin in asthma model", "conditions": "FIG. 12", "experimental": "In order to examine whether the asthma inhibitory effect of the paprika extract of the present invention is attributable to a combination of components or a specific component alone, the following test was carried out. Specifically, the immune cell infiltration of luteolin was examined."}}, "data": [{"compound": "O=c1cc(-c2ccc(O)c(O)c2)oc2cc(O)cc(O)c12", "note": "[luteolin]", "values": [{"measurement": "IgG2a, index of the activation of Th1 cells", "setting": "[1]", "value": "produced IgG2a"}, {"measurement": "expression of IgG1", "setting": "[2]", "value": "not inhibited"}, {"measurement": "effect on blood immunoglobulin-E levels", "setting": "[3]", "value": "did not reduce"}, {"measurement": "infiltration of immune cells", "setting": "[4]", "value": "inhibited the infiltration of immune cells"}]}]}
